Tested on: KRAS PDC multicell spheroid viability
Experiment: Anticancer human tumor 521955-158-R6-J3-PDC patient-derived pancreatic carcinoma cell line growth inhibition [KRAS2]
Conditions: for IC50: curve of first compound; for viability, T/C: stronger effect = lower value; active means viability on the fitted dose curve at most 10% of control; inactive means the rest
Outline: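 Combination screen of spheroid viability in tumor-cell co-cultures with endothelial (HUVEC) and mesenchymal stem cell stroma. Each agent was tested in half-log dilutions, topping at clinical Cmax or at 10 microM without a known Cmax.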

[1] = second compound 0.1 µM, first compound 0.0316 µM
[2] = second compound 0.1 µM, first compound 0.1 µM
[3] = second compound 0.316 µM, first compound 0.0316 µM
[4] = second compound 0.316 µM, first compound 0.1 µM
[5] = second compound 1 µM, first compound 0.0316 µM
[6] = second compound 1 µM, first compound 0.1 µM
[7] = second compound 3.16 µM, first compound 0.0316 µM
[8] = second compound 3.16 µM, first compound 0.1 µM
[9] = second compound 10 µM, first compound 0.0316 µM
[10] = second compound 10 µM, first compound 0.1 µM
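Further: drug exposure lasted seven days.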
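Wherever viability, T/C is given: 100% = DMSO vehicle wells and lower means fewer viable cells.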

CC(C)n1nc(-c2ccc3oc(N)nc3c2)c2c(N)ncnc21 + COc1cc2nc(C)nc(NC(C)c3cc(N)cc(C(F)(F)F)c3)c2cc1OC1CCOC1
97.5 nM: IC50 (second compound 0.1 µM)
< 0.316 nM: IC50 (second compound 10 µM)
94.7 nM: IC50 (second compound 0.316 µM)
92 nM: IC50 (second compound 1 µM)
56.6 nM: IC50 (second compound 3.16 µM)
inactive: viability, T/C (second compound 0.1 µM, first compound 0.000316 µM) 96.3% | viability, T/C (second compound 0.1 µM, first compound 0.001 µM) 96% | viability, T/C (second compound 0.1 µM, first compound 0.00316 µM) 79.9% | viability, T/C (second compound 0.1 µM, first compound 0.01 µM) 73.8% | viability, T/C [1] 63.9% | viability, T/C [2] 49.1% | viability, T/C (second compound 0.316 µM, first compound 0.000316 µM) 101% | viability, T/C (second compound 0.316 µM, first compound 0.001 µM) 85.9% | viability, T/C (second compound 0.316 µM, first compound 0.00316 µM) 80% | viability, T/C (second compound 0.316 µM, first compound 0.01 µM) 69.6% | viability, T/C [3] 64.6% | viability, T/C [4] 47.3% | viability, T/C (second compound 1 µM, first compound 0.000316 µM) 94.8% | viability, T/C (second compound 1 µM, first compound 0.001 µM) 87.1% | viability, T/C (second compound 1 µM, first compound 0.00316 µM) 74.8% | viability, T/C (second compound 1 µM, first compound 0.01 µM) 75.1% | viability, T/C [5] 63% | viability, T/C [6] 46.8% | viability, T/C (second compound 3.16 µM, first compound 0.000316 µM) 64.9% | viability, T/C (second compound 3.16 µM, first compound 0.001 µM) 66.8% | viability, T/C (second compound 3.16 µM, first compound 0.00316 µM) 63.5% | viability, T/C (second compound 3.16 µM, first compound 0.01 µM) 60.1% | viability, T/C [7] 61.6% | viability, T/C [8] 39.5% | viability, T/C (second compound 10 µM, first compound 0.000316 µM) 32% | viability, T/C (second compound 10 µM, first compound 0.001 µM) 24.6% | viability, T/C (second compound 10 µM, first compound 0.00316 µM) 68.8% | viability, T/C (second compound 10 µM, first compound 0.01 µM) 60.7% | viability, T/C [9] 45.5% | viability, T/C [10] 39.6%

CC1(C)CCC(CN2CCN(c3ccc(C(=O)NS(=O)(=O)c4ccc(NCC5CCOCC5)c([N+](=O)[O-])c4)c(Oc4cnc5[nH]ccc5c4)c3)CC2)=C(c2ccc(Cl)cc2)C1 + COc1cc2nc(C)nc(NC(C)c3cc(N)cc(C(F)(F)F)c3)c2cc1OC1CCOC1
inactive: viability, T/C [1] 103% | viability, T/C [2] 100% | viability, T/C (second compound 0.1 µM, first compound 0.316 µM) 91.6% | viability, T/C (second compound 0.1 µM, first compound 1 µM) 107% | viability, T/C (second compound 0.1 µM, first compound 3.16 µM) 77.8% | viability, T/C (second compound 0.1 µM, first compound 10 µM) 44.3% | viability, T/C [3] 90.8% | viability, T/C [4] 102% | viability, T/C (second compound 0.316 µM, first compound 0.316 µM) 95.7% | viability, T/C (second compound 0.316 µM, first compound 1 µM) 81.7% | viability, T/C (second compound 0.316 µM, first compound 3.16 µM) 70.5% | viability, T/C (second compound 0.316 µM, first compound 10 µM) 47.1% | viability, T/C [5] 90.1% | viability, T/C [6] 99.3% | viability, T/C (second compound 1 µM, first compound 0.316 µM) 88.1% | viability, T/C (second compound 1 µM, first compound 1 µM) 89.5% | viability, T/C (second compound 1 µM, first compound 3.16 µM) 63.1% | viability, T/C (second compound 1 µM, first compound 10 µM) 40% | viability, T/C [7] 68.9% | viability, T/C [8] 67.5% | viability, T/C (second compound 3.16 µM, first compound 0.316 µM) 69.3% | viability, T/C (second compound 3.16 µM, first compound 1 µM) 74% | viability, T/C (second compound 3.16 µM, first compound 3.16 µM) 47.7% | viability, T/C (second compound 3.16 µM, first compound 10 µM) 30.3% | viability, T/C [9] 19.5% | viability, T/C [10] 23.6% | viability, T/C (second compound 10 µM, first compound 0.316 µM) 17.3% | viability, T/C (second compound 10 µM, first compound 1 µM) 31.4% | viability, T/C (second compound 10 µM, first compound 3.16 µM) 18.6% | viability, T/C (second compound 10 µM, first compound 10 µM) 4.55%
2810 nM: IC50 (second compound 3.16 µM)
8210 nM: IC50 (second compound 0.1 µM)
6080 nM: IC50 (second compound 1 µM)
8720 nM: IC50 (second compound 0.316 µM)
< 31.6 nM: IC50 (second compound 10 µM)

Source: PubChem BioAssay AID1963864 (Molecular Pharmacology Branch, DTP, NCI, 2024)
